For 9 compounds, GI50 and TGI results are on record in PubChem BioAssay (NCI).

Among the test systems are A498 renal; A549 NSCLC; BT-549 breast; HOP-62 NSCLC; HS 578T breast; KM12 colon; SF-268 CNS; SR leukemia; SW-620 colon; UACC-257 melanoma.
Common to all, as to test: inhibition of tumour cell growth, NCI panel, 48 h

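Tested at 5 concentrations; 48 h exposure; 96-well plates; endpoints linearly interpolated, else capped at highest concentration. Here, GI50 denotes the concentration required for 50% inhibition of growth. The concentration for full growth arrest is given as TGI.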

`Nc1ccccc1-c1ccc([N+](=O)[O-])cc1`: the GI50 is 29 µM in the experiment on A498 renal; 4.65 µM in the experiment with A549 NSCLC; 4.54 µM in the experiment on BT-549 breast; above 100 µM with HOP-62 NSCLC; 50.8 µM with HS 578T breast; 1.59 µM in the experiment with KM12 colon. Besides, the GI50 in the experiment on SF-268 CNS is 12.9 µM; with SR leukemia, 29 µM; in the experiment with SW-620 colon it was 19.3 µM; in the experiment with UACC-257 melanoma it was 21.1 µM. Moreover, the TGI in the experiment on A498 renal is above 100 µM; in the experiment on A549 NSCLC, above 100 µM; with BT-549 breast, 37.1 µM; with HOP-62 NSCLC it was above 100 µM; in the experiment on HS 578T breast it was above 100 µM; with KM12 colon, 11.4 µM. Moreover, the TGI in the experiment with SF-268 CNS, with SR leukemia, in the experiment with SW-620 colon and in the experiment on UACC-257 melanoma was above 100 µM each time.

Take `CC(C)c1c(C(=O)Nc2ccccc2)c(-c2ccccc2)c(-c2ccc(F)cc2)n1CC[C@@H]1CC=CC(=O)O1`: the GI50 with A498 renal was 4.92 µM; in the experiment with A549 NSCLC it was 1.99 µM; in the experiment on BT-549 breast, 1.6 µM; in the experiment on HOP-62 NSCLC it was 1.85 µM; in the experiment on HS 578T breast it was 2.14 µM; with KM12 colon, 1.65 µM. Moreover, the GI50 in the experiment on SF-268 CNS was 1.81 µM; in the experiment on SR leukemia, 2.66 µM; in the experiment on SW-620 colon, 1.71 µM; in the experiment with UACC-257 melanoma, 1.97 µM. Further, the TGI with A498 renal is 19.1 µM; in the experiment with A549 NSCLC, 4.6 µM; with BT-549 breast it was 3.46 µM; with HOP-62 NSCLC, 4.14 µM; in the experiment on HS 578T breast, 6.05 µM; in the experiment on KM12 colon, 3.24 µM. In addition, the TGI in the experiment with SF-268 CNS came to 3.65 µM; in the experiment with SR leukemia, 9.49 µM; in the experiment on SW-620 colon it was 3.52 µM; in the experiment on UACC-257 melanoma it was 3.92 µM.

Consider `CCN1/C(=C/C=C/c2n(-c3ccccc3)c3ccc(-c4nc5ccccc5s4)cc3[n+]2CC)N(c2ccccc2)c2ccc(-c3nc4ccccc4s3)cc21`, for which the GI50 is 0.246 µM with A498 renal; 0.284 µM in the experiment on A549 NSCLC; 0.5 µM in the experiment on BT-549 breast; 0.284 µM with HS 578T breast; 1.24 µM in the experiment with KM12 colon; 0.525 µM in the experiment on SF-268 CNS. Also, the GI50 was 1.4 µM with SR leukemia, 0.445 µM in the experiment on SW-620 colon and 0.539 µM in the experiment with UACC-257 melanoma. The TGI with A498 renal was 2.39 µM; with A549 NSCLC, above 26.1 µM; with BT-549 breast, 3.28 µM; with HS 578T breast, above 50 µM; in the experiment with KM12 colon, above 50 µM; in the experiment on SF-268 CNS, above 50 µM. The TGI is above 50 µM in the experiment on SR leukemia, above 50 µM with SW-620 colon and above 15.4 µM with UACC-257 melanoma.

As for `Clc1cc2c(cc1Cl)Oc1cc(Cl)c(Cl)cc1O2`, the GI50 with A498 renal, with BT-549 breast, in the experiment with HOP-62 NSCLC, with HS 578T breast, with KM12 colon and in the experiment with SF-268 CNS was above 0.625 µM throughout. The GI50 with SR leukemia and in the experiment with SW-620 colon was above 0.625 µM throughout. Further, the TGI with A498 renal, in the experiment with BT-549 breast, with HOP-62 NSCLC, in the experiment with HS 578T breast, in the experiment with KM12 colon and with SF-268 CNS was above 0.625 µM each time. Further, the TGI in the experiment with SR leukemia and with SW-620 colon was above 0.625 µM in each case.

As for `Nc1nc(N)c(Cn2ccnc2)c(=O)[nH]1`, the TGI with A498 renal, in the experiment with A549 NSCLC, in the experiment on BT-549 breast, with HOP-62 NSCLC, with HS 578T breast and in the experiment with KM12 colon was above 100 µM each time. Besides, the TGI in the experiment with SF-268 CNS, in the experiment with SR leukemia and in the experiment on UACC-257 melanoma was above 100 µM in each case.

As for `N#C/C(=N\Nc1ccc(Cl)cc1)C(=O)Nc1cc(-c2ccccc2)nn1-c1ccccc1`, the GI50 with A549 NSCLC is 3.2 µM; with BT-549 breast it was 2.52 µM; in the experiment on HOP-62 NSCLC, 3.31 µM; in the experiment with HS 578T breast it was 3 µM; with KM12 colon it was 2.92 µM; in the experiment on SF-268 CNS, 2.65 µM. For the same compound, the values for the GI50 with SR leukemia, with SW-620 colon and with UACC-257 melanoma were 3.59 µM, 3.11 µM and 2.35 µM, respectively. For the same compound, the TGI in the experiment on A549 NSCLC is above 100 µM; in the experiment on BT-549 breast, 7.18 µM; in the experiment with HOP-62 NSCLC it was above 100 µM; in the experiment with HS 578T breast it was above 100 µM; in the experiment on KM12 colon, above 100 µM; in the experiment on SF-268 CNS, above 100 µM. Further, the TGI was above 100 µM in the experiment on SR leukemia, above 100 µM in the experiment on SW-620 colon and 8.62 µM in the experiment on UACC-257 melanoma.

Turning to `COc1ccc2c(c1O)C13CCN(C)C(C2)C1CCC1(C3)OCCO1` (configuration not stated), the TGI in the experiment with A549 NSCLC, with BT-549 breast, in the experiment with HOP-62 NSCLC, in the experiment on HS 578T breast, in the experiment on KM12 colon and with SF-268 CNS was above 100 µM throughout. Further, the TGI in the experiment with SR leukemia, in the experiment with SW-620 colon and with UACC-257 melanoma was above 100 µM in each case.

For `O=S(=O)(Cc1ccc(Cl)cc1Cl)c1ccc(Cl)cc1`, the GI50 with A498 renal was 0.317 µM; in the experiment with A549 NSCLC, 0.693 µM; in the experiment with BT-549 breast it was 1.54 µM; in the experiment with HOP-62 NSCLC it was 3.36 µM; in the experiment with HS 578T breast it was 0.729 µM; with KM12 colon, 0.372 µM. The figures for the GI50 in the experiment with SF-268 CNS, in the experiment with SR leukemia and in the experiment with SW-620 colon were 0.827 µM, 0.296 µM and 0.365 µM, respectively. The TGI with A498 renal was 16.3 µM; in the experiment with A549 NSCLC, above 100 µM; in the experiment on BT-549 breast, above 75.4 µM; with HOP-62 NSCLC, above 100 µM; in the experiment with HS 578T breast, above 100 µM; with KM12 colon, above 100 µM. Besides, the TGI is above 100 µM in the experiment on SF-268 CNS, 11 µM with SR leukemia and above 100 µM in the experiment with SW-620 colon.

Consider `CC1=C(/C=C/C(=O)O)C(C)(C)CCC1`, for which the TGI in the experiment with A498 renal, in the experiment with A549 NSCLC, in the experiment on BT-549 breast, in the experiment with HOP-62 NSCLC, in the experiment on HS 578T breast and in the experiment with SF-268 CNS was above 100 µM throughout. The TGI in the experiment on SR leukemia, in the experiment with SW-620 colon and in the experiment on UACC-257 melanoma was above 100 µM throughout.
